{"source": "patent US4524135A", "key": {"[1]": {"system": "Staphylococcus aureus ATCC 6738P", "assay": "Agar-plate disc-diffusion test", "format": "cell-based", "details": "1 mg/ml suspension in water, 7-mm disc, 24-48 hours at 25-37° C."}, "[2]": {"system": "Bacillus subtilis ATCC 6633", "assay": "Agar-plate disc-diffusion test", "format": "cell-based", "details": "1 mg/ml suspension in water, 7-mm disc, 24-48 hours at 25-37° C."}, "[3]": {"system": "Micrococcus luteus ATCC 9341", "assay": "Agar-plate disc-diffusion test", "format": "cell-based", "details": "1 mg/ml suspension in water, 7-mm disc, 24-48 hours at 25-37° C."}, "[4]": {"system": "Staphylococcus aureus V41", "assay": "Agar-dilution test", "format": "cell-based", "details": "penicillin-resistant strain"}, "[5]": {"system": "Streptococcus pneumoniae Park I", "assay": "Agar-dilution test", "format": "cell-based"}, "[6]": {"system": "Staphylococcus aureus", "assay": "Experimental bacterial infection in mice", "format": "in vivo", "details": "subcutaneous, two doses", "excerpt": "(§1) The results of in vivo tests to evaluate the effectiveness of the derivatives against experimental bacterial infections in mice are given in Table III. […] 81, 233-235 (1961)]."}, "[7]": {"system": "Streptococcus pyogenes", "assay": "Experimental bacterial infection in mice", "format": "in vivo", "details": "two doses", "excerpt": "as §1"}, "[8]": {"assay": "Toxicity in mice", "details": "mouse, in vivo, iv, administered intravenously", "excerpt": "| ^a Administered intravenously"}, "[9]": {"system": "Staphylococcus aureus X400", "details": "agar dilution; methicillin-resistant strain"}, "[10]": {"system": "Staphylococcus epidermidis EPI1", "details": "agar dilution"}, "[11]": {"system": "Streptococcus Group 9960", "details": "agar dilution"}, "[12]": {"system": "Staphylococcus aureus X1.1", "assay": "Agar-dilution test"}, "[13]": {"system": "Staphylococcus epidermidis EPI2", "assay": "Agar-dilution test"}, "[14]": {"system": "Streptococcus pyogenes C203", "assay": "Agar-dilution test"}, "[15]": {"system": "Streptococcus Group D X66", "assay": "Agar-dilution test"}}, "note": "Several values for one entry are separate records, joined by “and”; a condition that tells them apart may be missing. Identical values can stand only once."}
{"smiles": "CCCCCCCCCC(=O)N[C@@H](Cc1c[nH]c2ccccc12)C(=O)N[C@@H](CC(N)=O)C(=O)N[C@@H](CC(=O)O)C(=O)N[C@@H]1C(=O)NCC(=O)N[C@@H](CCCN)C(=O)N[C@@H](CC(=O)O)C(=O)N[C@H](C)C(=O)N[C@@H](CC(=O)O)C(=O)NCC(=O)N[C@H](CO)C(=O)N[C@@H]([C@H](C)CC(=O)O)C(=O)N[C@@H](CC(=O)c2ccccc2N)C(=O)O[C@@H]1C", "note": "[Example 6]", "values": [{"measurement": "Size of Zone of Inhibition", "setting": "[1]", "value": 24, "unit": "mm"}, {"measurement": "Size of Zone of Inhibition", "setting": "[2]", "value": 20, "unit": "mm"}, {"measurement": "Size of Zone of Inhibition", "setting": "[2]; grown on minimal nutrient agar", "value": 29, "unit": "mm"}, {"measurement": "Size of Zone of Inhibition", "setting": "[3]", "value": 22, "unit": "mm"}, {"measurement": "MIC", "setting": "[4]", "value": "1 µg/mL and 0.5 µg/mL"}, {"measurement": "MIC", "setting": "[5]", "value": "1 µg/mL and 0.5 µg/mL"}, {"measurement": "ED50", "setting": "[6]", "value": 0.28, "unit": "mg/kg × 2"}, {"measurement": "ED50", "setting": "[7]; oral", "value": 66, "unit": "mg/kg × 2"}, {"measurement": "ED50", "setting": "[7]; subcutaneous", "value": 0.03, "unit": "mg/kg × 2"}, {"measurement": "LD50", "setting": "[8]", "value": "> 300", "unit": "mg/kg"}, {"measurement": "MIC", "setting": "[9]", "value": "2 µg/mL and 1 µg/mL"}, {"measurement": "MIC", "setting": "[10]", "value": "2 µg/mL and 1 µg/mL"}, {"measurement": "MIC", "setting": "[11]", "value": 2, "unit": "µg/mL"}, {"measurement": "MIC", "setting": "[12]", "value": "1 µg/mL and 0.5 µg/mL"}, {"measurement": "MIC", "setting": "[13]", "value": "1 µg/mL and 0.5 µg/mL"}, {"measurement": "MIC", "setting": "[14]", "value": "0.25 µg/mL and 0.125 µg/mL"}, {"measurement": "MIC", "setting": "[15]", "value": 16, "unit": "µg/mL"}]}
{"smiles": "CCCCCCCCCC(=O)N[C@@H](Cc1ccccc1)C(=O)N[C@@H](Cc1c[nH]c2ccccc12)C(=O)N[C@@H](CC(N)=O)C(=O)N[C@@H](CC(=O)O)C(=O)N[C@@H]1C(=O)NCC(=O)N[C@@H](CCCN)C(=O)N[C@@H](CC(=O)O)C(=O)N[C@H](C)C(=O)N[C@@H](CC(=O)O)C(=O)NCC(=O)N[C@H](CO)C(=O)N[C@@H]([C@H](C)CC(=O)O)C(=O)N[C@@H](CC(=O)c2ccccc2N)C(=O)O[C@@H]1C", "note": "[Example 7, NTrp-[N-(n-Decanoyl)-L-phenylalanyl]-A-21978C Nucleus]", "values": [{"measurement": "Size of Zone of Inhibition", "setting": "[1]", "value": 30, "unit": "mm"}, {"measurement": "Size of Zone of Inhibition", "setting": "[2]", "value": 22, "unit": "mm"}, {"measurement": "Size of Zone of Inhibition", "setting": "[2]; grown on minimal nutrient agar", "value": 31, "unit": "mm"}, {"measurement": "Size of Zone of Inhibition", "setting": "[3]", "value": 24, "unit": "mm"}, {"measurement": "MIC", "setting": "[4]", "value": 0.5, "unit": "µg/mL"}, {"measurement": "MIC", "setting": "[5]", "value": 0.5, "unit": "µg/mL"}, {"measurement": "ED50", "setting": "[6]", "value": "0.7 mg/kg × 2 and 0.98 mg/kg × 2"}, {"measurement": "ED50", "setting": "[7]; oral", "value": "> 200", "unit": "mg/kg × 2"}, {"measurement": "ED50", "setting": "[7]; subcutaneous", "value": 0.39, "unit": "mg/kg × 2"}, {"measurement": "LD50", "setting": "[8]", "value": 600, "unit": "mg/kg"}, {"measurement": "MIC", "setting": "[9]", "value": 1, "unit": "µg/mL"}, {"measurement": "MIC", "setting": "[10]", "value": 1, "unit": "µg/mL"}, {"measurement": "MIC", "setting": "[11]", "value": 2, "unit": "µg/mL"}, {"measurement": "MIC", "setting": "[12]", "value": 0.5, "unit": "µg/mL"}, {"measurement": "MIC", "setting": "[13]", "value": 0.5, "unit": "µg/mL"}, {"measurement": "MIC", "setting": "[14]", "value": 0.25, "unit": "µg/mL"}, {"measurement": "MIC", "setting": "[15]", "value": 8, "unit": "µg/mL"}]}
{"smiles": "CCCCCCCCCCCCOc1ccc(C(=O)N[C@@H](Cc2c[nH]c3ccccc23)C(=O)N[C@H](CC(N)=O)C(=O)N[C@@H](CC(=O)O)C(=O)N[C@@H]2C(=O)NCC(=O)N[C@@H](CCCN)C(=O)N[C@@H](CC(=O)O)C(=O)N[C@H](C)C(=O)N[C@@H](CC(=O)O)C(=O)NCC(=O)N[C@H](CO)C(=O)N[C@@H]([C@H](C)CC(=O)O)C(=O)N[C@@H](CC(=O)c3ccccc3N)C(=O)O[C@@H]2C)cc1", "note": "[Example 8, NTrp -p-(n-dodecyloxy)benzoyl-A-21978C Nucleus]", "values": [{"measurement": "Size of Zone of Inhibition", "setting": "[1]", "value": 20, "unit": "mm"}, {"measurement": "Size of Zone of Inhibition", "setting": "[2]", "value": 13, "unit": "mm"}, {"measurement": "Size of Zone of Inhibition", "setting": "[2]; grown on minimal nutrient agar", "value": 20, "unit": "mm"}, {"measurement": "Size of Zone of Inhibition", "setting": "[3]", "value": 18, "unit": "mm"}, {"measurement": "MIC", "setting": "[4]", "value": 1, "unit": "µg/mL"}, {"measurement": "ED50", "setting": "[6]", "value": 3.35, "unit": "mg/kg × 2"}, {"measurement": "ED50", "setting": "[7]; oral", "value": "> 200", "unit": "mg/kg × 2"}, {"measurement": "ED50", "setting": "[7]; subcutaneous", "value": 0.31, "unit": "mg/kg × 2"}, {"measurement": "LD50", "setting": "[8]", "value": 67.5, "unit": "mg/kg"}, {"measurement": "MIC", "setting": "[9]", "value": 2, "unit": "µg/mL"}, {"measurement": "MIC", "setting": "[10]", "value": 4, "unit": "µg/mL"}, {"measurement": "MIC", "setting": "[11]", "value": 1, "unit": "µg/mL"}, {"measurement": "MIC", "setting": "[12]", "value": 1, "unit": "µg/mL"}, {"measurement": "MIC", "setting": "[13]", "value": 2, "unit": "µg/mL"}, {"measurement": "MIC", "setting": "[14]", "value": 0.25, "unit": "µg/mL"}, {"measurement": "MIC", "setting": "[15]", "value": 2, "unit": "µg/mL"}]}
